Source: US7932270B2 (Cytokinetics, Inc., priority 2006, dated 2011)
pIC50: −log10 of the molar value.

Each compound was assayed against T1, chicken gizzard smooth muscle myosin subfragment-1 chemically crosslinked to cardiac or skeletal actin (Gallus gallus, UniProt P10587) (assay: Smooth muscle myosin ATPase dose response assay (pyruvate kinase/horseradish peroxidase/pyruvate oxidase-coupled, amplex red fluorescence)). Conditions: read-out: IC50 Arithmetic Mean.
T1 construct: chicken gizzard smooth muscle myosin subfragment-1; from tissue; host or cells: chicken gizzard
T1 sequence (P02607 2-151): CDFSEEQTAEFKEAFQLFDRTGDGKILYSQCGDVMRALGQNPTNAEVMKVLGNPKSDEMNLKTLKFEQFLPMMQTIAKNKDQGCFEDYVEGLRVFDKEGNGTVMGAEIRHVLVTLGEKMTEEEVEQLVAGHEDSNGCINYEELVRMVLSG
T1 sequence (P10587 84-789): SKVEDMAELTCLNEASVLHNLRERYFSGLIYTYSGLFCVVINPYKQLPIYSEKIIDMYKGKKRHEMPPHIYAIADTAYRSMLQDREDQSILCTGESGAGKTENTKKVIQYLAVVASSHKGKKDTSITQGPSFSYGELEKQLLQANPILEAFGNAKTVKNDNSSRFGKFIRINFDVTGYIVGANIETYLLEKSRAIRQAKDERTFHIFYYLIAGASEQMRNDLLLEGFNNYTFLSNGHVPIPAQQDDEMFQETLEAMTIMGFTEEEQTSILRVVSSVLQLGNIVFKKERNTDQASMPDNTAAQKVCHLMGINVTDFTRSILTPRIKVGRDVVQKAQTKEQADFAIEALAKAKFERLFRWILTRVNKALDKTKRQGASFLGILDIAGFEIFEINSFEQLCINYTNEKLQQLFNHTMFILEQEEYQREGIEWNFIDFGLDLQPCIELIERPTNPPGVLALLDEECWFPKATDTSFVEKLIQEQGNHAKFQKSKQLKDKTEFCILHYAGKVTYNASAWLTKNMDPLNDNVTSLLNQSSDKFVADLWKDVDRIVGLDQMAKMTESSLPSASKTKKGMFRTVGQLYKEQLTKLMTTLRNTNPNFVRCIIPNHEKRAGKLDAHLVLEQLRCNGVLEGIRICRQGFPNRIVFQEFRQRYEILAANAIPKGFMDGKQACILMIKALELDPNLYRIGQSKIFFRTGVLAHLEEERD
Assay type: biochemical
In short: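 Amplex red fluorescence (480 nm excitation, 615 nm emission) tracked ATP hydrolysis by smooth muscle S1 crosslinked to actin with carbodiimide/N-hydroxysuccinimide. Reactions contained 0.15 mM ATP and 100 mM KCl at pH 7.00, 22° C. IC50 came from a four-parameter logistic fit.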
COc1ccc(Cl)c(-c2ccc(C(=O)NCc3cccnc3)c(NCCc3cccc(F)c3)n2)c1 [(6-(2-chloro-5-methoxyphenyl)-2-{[2-(3-fluorophenyl)ethyl]amino}(3-pyridyl))-N-(3-pyridylmethyl)carboxamide] gave a pIC50 of 5.70.
For O=C(NCc1cccnc1)c1ccc(-c2c(F)cccc2Cl)nc1NCCc1cccc(F)c1 [(6-(2-chloro-6-fluorophenyl)-2-{[2-(3-fluorophenyl)ethyl]amino}(3-pyridyl))-N-(3-pyridylmethyl)carboxamide], the pIC50 was 6.27.
N#Cc1sccc1-c1ccc(C(=O)NCc2cccnc2)c(NCCc2cccc(F)c2)n1 [(6-(2-cyano(3-thienyl))-2-{[2-(3-fluorophenyl)ethyl]amino}(3-pyridyl))-N-(3-pyridylmethyl)carboxamide] showed a pIC50 of 7.48.
N#Cc1cc(F)ccc1-c1ccc(C(=O)NCc2cccnc2)c(NCCc2cccc(F)c2)n1 [(6-(2-cyano-4-fluorophenyl)-2-{[2-(3-fluorophenyl)ethyl]amino}(3-pyridyl))-N-(3-pyridylmethyl)carboxamide] gave a pIC50 of 7.42.
Work on Cc1ccc(-c2ccc(C(=O)NCc3cccnc3)c(NCCc3cccc(F)c3)n2)c(C#N)c1 [(6-(2-cyano-4-methylphenyl)-2-{[2-(3-fluorophenyl)ethyl]amino}(3-pyridyl))-N-(3-pyridylmethyl)carboxamide] yielded a pIC50 of 6.00.
In the case of N#Cc1ccc(F)cc1-c1ccc(C(=O)NCc2cccnc2)c(NCCc2cccc(F)c2)n1 [(6-(2-cyano-5-fluorophenyl)-2-{[2-(3-fluorophenyl)ethyl]amino}(3-pyridyl))-N-(3-pyridylmethyl)carboxamide], the pIC50 was 7.28.
COc1ccc(C#N)c(-c2ccc(C(=O)NCc3cccnc3)c(NCCc3cccc(F)c3)n2)c1 [(6-(2-cyano-5-methoxyphenyl)-2-{[2-(3-fluorophenyl)ethyl]amino}(3-pyridyl))-N-(3-pyridylmethyl)carboxamide] showed a pIC50 of 7.39.
Compound N#Cc1cccc(F)c1-c1ccc(C(=O)NCc2cccnc2)c(NCCc2cccc(F)c2)n1 [(6-(2-cyano-6-fluorophenyl)-2-{[2-(3-fluorophenyl)ethyl]amino}(3-pyridyl))-N-(3-pyridylmethyl)carboxamide] has a pIC50 of 7.07.
N#Cc1ccccc1CCNc1nc(-c2ccccc2C#N)ccc1C(=O)NCc1cccnc1 [(6-(2-cyanophenyl)-2-{[2-(2-cyanophenyl)ethyl]amino}(3-pyridyl))-N-(3-pyridylmethyl)carboxamide] gave a pIC50 of 7.36.
N#Cc1ccccc1-c1ccc(C(=O)NCc2cccnc2)c(NCCc2ccccc2F)n1 [(6-(2-cyanophenyl)-2-{[2-(2-fluorophenyl)ethyl]amino}(3-pyridyl))-N-(3-pyridylmethyl)carboxamide] was tested, and the pIC50 was 7.55.
N#Cc1ccccc1-c1ccc(C(=O)NCc2cccnc2)c(NCCc2ccccc2O)n1 [(6-(2-cyanophenyl)-2-{[2-(2-hydroxyphenyl)ethyl]amino}(3-pyridyl))-N-(3-pyridylmethyl)carboxamide] gave a pIC50 of 6.42.
Cc1ccccc1CCNc1nc(-c2ccccc2C#N)ccc1C(=O)NCc1cccnc1 [(6-(2-cyanophenyl)-2-{[2-(2-methylphenyl)ethyl]amino}(3-pyridyl))-N-(3-pyridylmethyl)carboxamide] was tested, and the pIC50 was 7.12.
N#Cc1ccccc1-c1ccc(C(=O)NCc2cccnc2)c(NCC(O)c2cccc(F)c2)n1 (stereo not shown) [(6-(2-cyanophenyl)-2-{[2-(3-fluorophenyl)-2-hydroxyethyl]amino}(3-pyridyl))-N-(3-pyridylmethyl)carboxamide] was tested, and the pIC50 was 6.47.
For N#Cc1ccccc1-c1ccc(C(=O)NCc2ncco2)c(NCCc2cccc(F)c2)n1 [(6-(2-cyanophenyl)-2-{[2-(3-fluorophenyl)ethyl]amino}(3-pyridyl))-N-(1,3-oxazol-2-ylmethyl)carboxamide], the pIC50 was 7.40.
Compound N#Cc1ccccc1-c1ccc(C(=O)NCCc2ccccn2)c(NCCc2cccc(F)c2)n1 [(6-(2-cyanophenyl)-2-{[2-(3-fluorophenyl)ethyl]amino}(3-pyridyl))-N-(2-(2-pyridyl)ethyl)carboxamide] has a pIC50 of 6.54.
N#Cc1ccccc1-c1ccc(C(=O)NCCc2cccnc2)c(NCCc2cccc(F)c2)n1 [(6-(2-cyanophenyl)-2-{[2-(3-fluorophenyl)ethyl]amino}(3-pyridyl))-N-(2-(3-pyridyl)ethyl)carboxamide] was tested, and the pIC50 was 6.82.
Compound N#Cc1ccccc1-c1ccc(C(=O)NCCO)c(NCCc2cccc(F)c2)n1 [(6-(2-cyanophenyl)-2-{[2-(3-fluorophenyl)ethyl]amino}(3-pyridyl))-N-(2-hydroxyethyl)carboxamide] has a pIC50 of 5.97.
COCCNC(=O)c1ccc(-c2ccccc2C#N)nc1NCCc1cccc(F)c1 [(6-(2-cyanophenyl)-2-{[2-(3-fluorophenyl)ethyl]amino}(3-pyridyl))-N-(2-methoxyethyl)carboxamide] gave a pIC50 of 6.62.
N#Cc1ccccc1-c1ccc(C(=O)NCCN2CCNCC2)c(NCCc2cccc(F)c2)n1 [(6-(2-cyanophenyl)-2-{[2-(3-fluorophenyl)ethyl]amino}(3-pyridyl))-N-(2-piperazinylethyl)carboxamide] was tested, and the pIC50 was 4.79.
N#Cc1ccccc1-c1ccc(C(=O)NCCc2cnccn2)c(NCCc2cccc(F)c2)n1 [(6-(2-cyanophenyl)-2-{[2-(3-fluorophenyl)ethyl]amino}(3-pyridyl))-N-(2-pyrazin-2-ylethyl)carboxamide] was tested, and the pIC50 was 6.58.
With N#Cc1ccccc1-c1ccc(C(=O)NCc2ccccn2)c(NCCc2cccc(F)c2)n1 [(6-(2-cyanophenyl)-2-{[2-(3-fluorophenyl)ethyl]amino}(3-pyridyl))-N-(2-pyridylmethyl)carboxamide] the pIC50 was 7.54.
N#Cc1ccccc1-c1ccc(C(=O)NCCN2CCC[C@H](NC(=O)OCc3ccccc3)C2=O)c(NCCc2cccc(F)c2)n1 [(6-(2-cyanophenyl)-2-{[2-(3-fluorophenyl)ethyl]amino}(3-pyridyl))-N-(2-{2-oxo-3-[(phenylmethoxy)carbonylamino]piperidyl}ethyl)carboxamide] was tested, and the pIC50 was 4.93.
In the case of N#Cc1ccccc1-c1ccc(C(=O)NCCCO)c(NCCc2cccc(F)c2)n1 [(6-(2-cyanophenyl)-2-{[2-(3-fluorophenyl)ethyl]amino}(3-pyridyl))-N-(3-hydroxypropyl)carboxamide], the pIC50 was 6.50.
For COCCCNC(=O)c1ccc(-c2ccccc2C#N)nc1NCCc1cccc(F)c1 [(6-(2-cyanophenyl)-2-{[2-(3-fluorophenyl)ethyl]amino}(3-pyridyl))-N-(3-methoxypropyl)carboxamide], the pIC50 was 6.40.
Compound N#Cc1ccccc1-c1ccc(C(=O)NCc2cccnc2)c(NCCc2cccc(F)c2)n1 [(6-(2-cyanophenyl)-2-{[2-(3-fluorophenyl)ethyl]amino}(3-pyridyl))-N-(3-pyridylmethyl)carboxamide] has a pIC50 of 7.62.
With N#Cc1ccccc1-c1ccc(C(=O)NCC2CCNCC2)c(NCCc2cccc(F)c2)n1 [(6-(2-cyanophenyl)-2-{[2-(3-fluorophenyl)ethyl]amino}(3-pyridyl))-N-(4-piperidylmethyl)carboxamide] the pIC50 was 6.47.
In the case of N#Cc1ccccc1-c1ccc(C(=O)NCC2CC2)c(NCCc2cccc(F)c2)n1 [(6-(2-cyanophenyl)-2-{[2-(3-fluorophenyl)ethyl]amino}(3-pyridyl))-N-(cyclopropylmethyl)carboxamide], the pIC50 was 6.87.
N#Cc1ccccc1-c1ccc(C(=O)NCc2ccno2)c(NCCc2cccc(F)c2)n1 [(6-(2-cyanophenyl)-2-{[2-(3-fluorophenyl)ethyl]amino}(3-pyridyl))-N-(isoxazol-5-ylmethyl)carboxamide] gave a pIC50 of 7.68.
